Results reported in PubChem BioAssay (NCI).
Values joined by “and” are separate entries in the source; they are usually repeats but may differ in a detail not shown here. Equal entries are not always repeated.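 Step 1: Grow cells in 96-well plates. Step 2: Expose to compound for 48 hours at 5 concentrations. Step 3: Interpolate endpoints linearly; if unreached, use highest concentration. Here, GI50 denotes the concentration required for 50% inhibition of growth. TGI denotes the concentration required for complete inhibition of growth.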

Tests used:
Experiment in all cases: growth of human tumour cells (NCI), 48 h
786-0 renal = system: 786-0 renal
A498 renal = system: A498 renal
A549 NSCLC = system: A549 NSCLC
ACHN renal = system: ACHN renal
BT-549 breast = system: BT-549 breast
CAKI-1 renal = system: CAKI-1 renal
CCRF-CEM leukemia = system: CCRF-CEM leukemia
COLO 205 colon = system: COLO 205 colon
DU-145 prostate = system: DU-145 prostate
EKVX NSCLC = system: EKVX NSCLC
HCC-2998 colon = system: HCC-2998 colon
HCT-116 colon = system: HCT-116 colon
HCT-15 colon = system: HCT-15 colon
HL-60(TB) leukemia = system: HL-60(TB) leukemia
HOP-62 NSCLC = system: HOP-62 NSCLC
HOP-92 NSCLC = system: HOP-92 NSCLC
HS 578T breast = system: HS 578T breast
HT29 colon = system: HT29 colon
IGROV1 ovarian = system: IGROV1 ovarian
K-562 leukemia = system: K-562 leukemia
KM12 colon = system: KM12 colon
LOX IMVI melanoma = system: LOX IMVI melanoma
M14 melanoma = system: M14 melanoma
MALME-3M melanoma = system: MALME-3M melanoma
MCF7 breast = system: MCF7 breast
MDA-MB-231 breast = system: MDA-MB-231 breast
MDA-MB-435 = system: MDA-MB-435
MDA-MB-468 breast = system: MDA-MB-468 breast
MOLT-4 leukemia = system: MOLT-4 leukemia
NCI-H226 lung = system: NCI-H226 lung
NCI-H23 lung = system: NCI-H23 lung
NCI-H460 lung = system: NCI-H460 lung
NCI-H522 lung = system: NCI-H522 lung
NCI/ADR-RES ovarian = system: NCI/ADR-RES ovarian
OVCAR-3 ovarian = system: OVCAR-3 ovarian
OVCAR-4 ovarian = system: OVCAR-4 ovarian
OVCAR-5 ovarian = system: OVCAR-5 ovarian
OVCAR-8 ovarian = system: OVCAR-8 ovarian
PC-3 prostate = system: PC-3 prostate
RPMI-8226 leukemia = system: RPMI-8226 leukemia
RXF 393 renal = system: RXF 393 renal
SF-268 CNS = system: SF-268 CNS
SF-295 CNS = system: SF-295 CNS
SF-539 CNS = system: SF-539 CNS
SK-MEL-2 melanoma = system: SK-MEL-2 melanoma
SK-MEL-28 melanoma = system: SK-MEL-28 melanoma
SK-MEL-5 melanoma = system: SK-MEL-5 melanoma
SK-OV-3 ovarian = system: SK-OV-3 ovarian
SN12C renal = system: SN12C renal
SNB-19 CNS = system: SNB-19 CNS
SNB-75 CNS = system: SNB-75 CNS
SW-620 colon = system: SW-620 colon
T-47D breast = system: T-47D breast
TK-10 renal = system: TK-10 renal
U251 CNS = system: U251 CNS
UACC-257 melanoma = system: UACC-257 melanoma
UACC-62 melanoma = system: UACC-62 melanoma
UO-31 renal = system: UO-31 renal

COc1ccc2c(c1)c(/C=N/Nc1ccc3ccccc3n1)cn2C gave a GI50 (786-0 renal) of 15.3 µM, a TGI (786-0 renal) of 31.6 µM and a GI50 (A498 renal) of 17.4 µM. It also gave a TGI (A498 renal) of 33 µM, a GI50 (A549 NSCLC) of 9.48 µM and a TGI (A549 NSCLC) of 28.7 µM. The GI50 (ACHN renal) was 7.38 µM, the TGI (ACHN renal) was 21.4 µM and the GI50 (BT-549 breast) was 15.2 µM. For the same compound, the TGI (BT-549 breast) was 30.2 µM, the GI50 (CAKI-1 renal) was 5.95 µM and the TGI (CAKI-1 renal) was 21.3 µM. The GI50 (CCRF-CEM leukemia) was 5.52 µM, the TGI (CCRF-CEM leukemia) was 86.7 µM and the GI50 (COLO 205 colon) was 15.9 µM. The TGI (COLO 205 colon) was 39.2 µM, the GI50 (DU-145 prostate) was 12.3 µM and the TGI (DU-145 prostate) was 25.5 µM. It also gave a GI50 (EKVX NSCLC) of 2.3 µM, a TGI (EKVX NSCLC) of 19.4 µM and a GI50 (HCC-2998 colon) of 3.69 µM. For the same compound, the TGI (HCC-2998 colon) was 15.4 µM, the GI50 (HCT-116 colon) was 8.18 µM and the TGI (HCT-116 colon) was 26.5 µM. For the same compound, the GI50 (HCT-15 colon) was 3.4 µM, the TGI (HCT-15 colon) was 13.3 µM and the GI50 (HL-60(TB) leukemia) was 10.4 µM. For the same compound, the TGI (HL-60(TB) leukemia) was 41.7 µM, the GI50 (HOP-62 NSCLC) was 11.3 µM and the TGI (HOP-62 NSCLC) was 44.9 µM. It also gave a GI50 (HOP-92 NSCLC) of 1.58 µM, a TGI (HOP-92 NSCLC) of 11.5 µM and a GI50 (HS 578T breast) of 13 µM. The TGI (HS 578T breast) was 33.3 µM, the GI50 (HT29 colon) was 5.46 µM and the TGI (HT29 colon) was 23.1 µM. For the same compound, the GI50 (IGROV1 ovarian) was 10.8 µM, the TGI (IGROV1 ovarian) was 26.5 µM and the GI50 (K-562 leukemia) was 3.36 µM. For the same compound, the TGI (K-562 leukemia) was > 100 µM, the GI50 (KM12 colon) was 5.47 µM and the TGI (KM12 colon) was 21.9 µM. The GI50 (LOX IMVI melanoma) was 1.97 µM, the TGI (LOX IMVI melanoma) was 5.27 µM and the GI50 (M14 melanoma) was 13.4 µM. The TGI (M14 melanoma) was 30.1 µM, the GI50 (MALME-3M melanoma) was 18.6 µM and the TGI (MALME-3M melanoma) was 38.7 µM. For the same compound, the GI50 (MCF7 breast) was 4.45 µM, the TGI (MCF7 breast) was 24.2 µM and the GI50 (MDA-MB-231 breast) was 4.36 µM. The TGI (MDA-MB-231 breast) was 19 µM, the GI50 (MDA-MB-435) was 8.41 µM and the TGI (MDA-MB-435) was 23.1 µM. For the same compound, the GI50 (MDA-MB-468 breast) was 3.91 µM, the TGI (MDA-MB-468 breast) was 16.1 µM and the GI50 (MOLT-4 leukemia) was 6.5 µM. For the same compound, the TGI (MOLT-4 leukemia) was 39.1 µM, the GI50 (NCI-H226 lung) was 7.95 µM and the TGI (NCI-H226 lung) was 29.6 µM. The GI50 (NCI-H23 lung) was 11.8 µM, the TGI (NCI-H23 lung) was 28.4 µM and the GI50 (NCI-H460 lung) was 7.8 µM. For the same compound, the TGI (NCI-H460 lung) was 30 µM, the GI50 (NCI-H522 lung) was 14 µM and the TGI (NCI-H522 lung) was 39 µM. It also gave a GI50 (NCI/ADR-RES ovarian) of 10.4 µM, a TGI (NCI/ADR-RES ovarian) of 30.3 µM and a GI50 (OVCAR-3 ovarian) of 13.9 µM. It also gave a TGI (OVCAR-3 ovarian) of 31.4 µM, a GI50 (OVCAR-4 ovarian) of 13.2 µM and a TGI (OVCAR-4 ovarian) of 33.3 µM. It also gave a GI50 (OVCAR-5 ovarian) of 11.9 µM, a TGI (OVCAR-5 ovarian) of 24.7 µM and a GI50 (OVCAR-8 ovarian) of 14.7 µM. It also gave a TGI (OVCAR-8 ovarian) of 35.7 µM, a GI50 (PC-3 prostate) of 8.25 µM and a TGI (PC-3 prostate) of 23.9 µM. For the same compound, the GI50 (RPMI-8226 leukemia) was 7.83 µM, the TGI (RPMI-8226 leukemia) was 42.9 µM and the GI50 (RXF 393 renal) was 5.03 µM. For the same compound, the TGI (RXF 393 renal) was 19.1 µM, the GI50 (SF-268 CNS) was 14.3 µM and the TGI (SF-268 CNS) was 31.3 µM. The GI50 (SF-295 CNS) was 11.2 µM, the TGI (SF-295 CNS) was 24.4 µM and the GI50 (SF-539 CNS) was 10.3 µM. The TGI (SF-539 CNS) was 22.2 µM, the GI50 (SK-MEL-2 melanoma) was 16.8 µM and the TGI (SK-MEL-2 melanoma) was 35.1 µM. It also gave a GI50 (SK-MEL-28 melanoma) of 14.9 µM, a TGI (SK-MEL-28 melanoma) of 30.3 µM and a GI50 (SK-MEL-5 melanoma) of 10.4 µM. It also gave a TGI (SK-MEL-5 melanoma) of 22.7 µM, a GI50 (SK-OV-3 ovarian) of 16.3 µM and a TGI (SK-OV-3 ovarian) of 36.5 µM. For the same compound, the GI50 (SN12C renal) was 7.61 µM, the TGI (SN12C renal) was 22.5 µM and the GI50 (SNB-19 CNS) was 15.8 µM. It also gave a TGI (SNB-19 CNS) of 32.4 µM, a GI50 (SNB-75 CNS) of 4.97 µM and a TGI (SNB-75 CNS) of 22.2 µM. For the same compound, the GI50 (SW-620 colon) was 7.46 µM, the TGI (SW-620 colon) was 35.2 µM and the GI50 (T-47D breast) was 8.62 µM. For the same compound, the TGI (T-47D breast) was 36.5 µM, the GI50 (TK-10 renal) was 22.5 µM and the TGI (TK-10 renal) was 39 µM. For the same compound, the GI50 (U251 CNS) was 13.3 µM, the TGI (U251 CNS) was 32.9 µM and the GI50 (UACC-257 melanoma) was 15.4 µM. The TGI (UACC-257 melanoma) was 30.2 µM, the GI50 (UACC-62 melanoma) was 12.7 µM and the TGI (UACC-62 melanoma) was 26.8 µM. For the same compound, the GI50 (UO-31 renal) was 1.68 µM and the TGI (UO-31 renal) was 13.4 µM.

With COc1cc2c(cc1OC)-c1ccc3cc4c(cc3c1N(CCN(C)C)C2)OCO4 the GI50 (MDA-MB-468 breast) was 0.21 µM and the TGI (MDA-MB-468 breast) was 0.762 µM.

For COc1ccc2c3c(c4ccccc4cc13)C(=O)N(CCN(C)CCN)C2=O, the GI50 (MDA-MB-468 breast) was 0.289 µM and the TGI (MDA-MB-468 breast) was 1.16 µM.

With Cn1cc(-c2nc(-c3c[nH]c4ccncc34)cs2)c2cc(F)ccc21 the GI50 (MDA-MB-468 breast) was 1.4 µM and the TGI (MDA-MB-468 breast) was 2.89 µM.

In the case of CSc1n(Cc2ccc3ccccc3c2)c(C)c[n+]1Cc1ccc2ccccc2c1, the GI50 (MDA-MB-468 breast) is reported as 0.211 µM and the TGI (MDA-MB-468 breast) is reported as 0.672 µM.

Nc1nc2ccc3[nH]ncc3c2c2c1CCCC2 was tested, and the GI50 (MDA-MB-468 breast) was 1.46 µM and the TGI (MDA-MB-468 breast) was 2.92 µM.

With O=C(NCCN1CCC(O)CC1)c1cc2c(o1)C(=O)c1ccccc1C2=O the GI50 (MDA-MB-468 breast) was 0.202 µM and the TGI (MDA-MB-468 breast) was 0.559 µM.

Work on C[n+]1c2ccccc2c(Nc2ccc(NS(=O)(=O)CCCCN=C(N)N)cc2)c2ccc(N)cc21 yielded a GI50 (MDA-MB-468 breast) of 0.989 µM and a TGI (MDA-MB-468 breast) of 26.1 µM.

Cc1ccc(C(=O)/C(=C\c2ccc([N+](=O)[O-])cc2)S(=O)Cc2ccc(F)cc2)cc1 (stereo not drawn) was tested, and the GI50 (MDA-MB-468 breast) was 1.85 µM and the TGI (MDA-MB-468 breast) was 3.69 µM.

For COc1ccc(SC2c3ccc(C)cc3Oc3nc(N)c(C#N)c(N)c32)cc1 (stereo not drawn), the GI50 (MDA-MB-468 breast) was 1.79 µM and the TGI (MDA-MB-468 breast) was 3.6 µM.

With c1ccc(Nn2c(CCCCCCCCc3nnc(COc4ccccc4)n3Nc3ccccc3)nnc2COc2ccccc2)cc1 the GI50 (MDA-MB-468 breast) was 12.8 µM and 61.6 µM and the TGI (MDA-MB-468 breast) was > 300 µM.

Compound CN[C@@H]1C[C@H]2O[C@@](C)([C@@H]1OC)n1c3ccccc3c3c4c(c5c6ccccc6n2c5c31)C(=O)N[C@H]4O has a GI50 (MDA-MB-468 breast) of 0.0176 µM and a TGI (MDA-MB-468 breast) of 0.105 µM.
